Values quoted from earlier work, collected in patent publication US20240043473A1, “NOOTROPIC PEPTIDES FOR TREATING LYSOSOMAL STORAGE DISEASES” (Phoenix Nest Inc., priority 2021, published 2024).

System: BDNF and its signaling receptor TrkB in the hippocampus
Details: in animals; cited from earlier work

## Semax: synthetic analogue of ACTH(4-10), consisting of ACTH(4-7) and the C-terminal tripeptide Pro-Gly-Pro; MEHFPGP (SEQ ID NO: 1)
  levels and expression of BDNF and its signaling receptor TrkB in the hippocampus: rapidly elevates the levels and expression
  serotonergic and dopaminergic brain systems: rapidly activates
